The values below come from patent publication US20100008980A1, “Use of MAGE A3-Protein D Fusion Antigen in Immunotherapy Combined with Surgery, Chemotherapy or Radiotherapy for the Treatment of Cancer” (priority 2007, published 2010).

The subject of one assay is MAGE-A3. How it is done: (§1) Groups of CB6F1 female mice (n=10/group) received at day 0 sub-cutaneous (SC) 10e5 TC1-Mage3 cells followed by injection of: • Group 1: PBS at day 3-7-11-15 • Group 2: MAGE-A3 (1 μg)/As 15 ASCI at day 3-7-11-15 • Group 3: Cyclophosphamide (CY) (2 mg IP) at day 0+PBS at day 3-7-11-15 • Group 4: CY+MAGE-A3 (1 μg)/AS15 ASCI
(§2) • verification of the depletion by FACS at day 3 and 15 on whole blood • in vivo tumor growth from day 0 to day 28 • ICS at day 28 on spleen cells • serology at day 28 (not completed)
14 days after the last ASCI injection, the T cell response was analyzed by intracellular cytokine staining of CD4 and CD8 using flow cytometry (3 pools per group) after a short in vitro restimulation (2 Hrs) with the pool of MAGE-A3 overlapping peptide spanning the entire MAGE-A3 sequence.

The next assay deals with TC1-Mage3 cells. It counts as in vivo, CB6F1 female mice. The following applies: 10e5 TC1 MAGE3 cells SC day 0; cyclophosphamide 2 mg at day 0; groups of 10 mice. The method, then:
as §1, §2

Another assay deals with CD4+CD25+ Treg. It counts as in vivo, CB6F1 female mice. Particulars: for % CD4+ CD25+/ total cell / % Treg/ total cell / CD4+ CD25+ (events): blood, CY 2 mg IP at day 0. The method, then:
as §1, §2
(§3) In order to analyze the impact of 2 mg of CY injected intraperitoneally in mice, 3 and 15 days after the injection blood was taken and lymphocytes count was performed by FACS

Another assay relates to lymphocytes. Format: in vivo, CB6F1 female mice. Particulars: for Total Cell count (multisizer): blood, CY 2 mg IP at day 0. The method, then:
as §1, §2, §3

Where two headings read alike, the source gives them in different places.

In the case of `O=P1(N(CCCl)CCCl)NCCCO1` (stereo not shown) [Cyclophosphamide (Cy), Cyclophosphamide], the “MAGE-A3 specific CD4 response” value in the assay on MAGE-A3 (cyclophosphamide by itself, spleen cells day 28, FIG. 1) is listed as “did not induce any MAGE-A3 specific CD4 response”. Besides, in the assay on MAGE-A3 (cyclophosphamide by itself, spleen cells day 28, FIG. 2), the “MAGE-A3 specific CD8 response” value was “did not induce any MAGE_A3 specific CD8 response”. The “effect on the CD4 response induced by the ASCI” value in the assay on MAGE-A3 (cyclophosphamide given 3 days before the ASCI, FIG. 1) is “did not abolish the CD4 response induced by the ASCI there is even a trend in favor of a better response”. For the same molecule, the “effect on the CD8 response induced by the ASCI” value in the assay with MAGE-A3 (cyclophosphamide given 3 days before the ASCI, FIG. 2) is reported as “did not abolish the CD8 response induced by the ASCI there is even a trend in favor of a better response”. Further, the “tumor rejection, % of the animals” value in the assay with TC1-Mage3 cells worked out at 100%. Further, the “number of T reg (in words)” value in the assay on CD4+CD25+ Treg (3 days after 2 mg cyclophosphamide) was “only slightly decreased the number of T reg but did not deplete them”. The “% CD4+ CD25+/ total cell” value in the assay with CD4+CD25+ Treg (3 days) came to 0.1%; with CD4+CD25+ Treg (15 days), 0.16%. The “% Treg/ total cell” value was 0.07% with CD4+CD25+ Treg (3 days) and 0.13% in the assay with CD4+CD25+ Treg (15 days). The “CD4+ CD25+ (events)” value in the assay on CD4+CD25+ Treg (3 days) worked out at 274 events; in the assay with CD4+CD25+ Treg (15 days), 539 events. Moreover, the “total number of T cells (in words)” value in the assay on lymphocytes (3 days after 2 mg CY) is reported as “has an impact on the total number of T cells”; with lymphocytes (15 days after the injection of CY), “almost restored”. Moreover, the “Total Cell count (multisizer)” value stood at 1 ×10e6 cells/ml in the assay on lymphocytes (3 days after injection) and 5.53 ×10e6 cells/ml in the assay on lymphocytes (15 days after injection).
